Our source for the inhibition values is ChEMBL document CHEMBL4808148, “HDAC6 screening dataset using tau-based substrate in an enzymatic assay yields selective inhibitors and activators” (2021).

As a reminder, the inhibition is the drop in the measured response relative to a control, in per cent.

Structures are written as SMILES.

The target in this experiment is T1, Protein deacetylase HDAC6 (Homo sapiens) (UniProt Q9UBN7).
T1 sequence (whole entry): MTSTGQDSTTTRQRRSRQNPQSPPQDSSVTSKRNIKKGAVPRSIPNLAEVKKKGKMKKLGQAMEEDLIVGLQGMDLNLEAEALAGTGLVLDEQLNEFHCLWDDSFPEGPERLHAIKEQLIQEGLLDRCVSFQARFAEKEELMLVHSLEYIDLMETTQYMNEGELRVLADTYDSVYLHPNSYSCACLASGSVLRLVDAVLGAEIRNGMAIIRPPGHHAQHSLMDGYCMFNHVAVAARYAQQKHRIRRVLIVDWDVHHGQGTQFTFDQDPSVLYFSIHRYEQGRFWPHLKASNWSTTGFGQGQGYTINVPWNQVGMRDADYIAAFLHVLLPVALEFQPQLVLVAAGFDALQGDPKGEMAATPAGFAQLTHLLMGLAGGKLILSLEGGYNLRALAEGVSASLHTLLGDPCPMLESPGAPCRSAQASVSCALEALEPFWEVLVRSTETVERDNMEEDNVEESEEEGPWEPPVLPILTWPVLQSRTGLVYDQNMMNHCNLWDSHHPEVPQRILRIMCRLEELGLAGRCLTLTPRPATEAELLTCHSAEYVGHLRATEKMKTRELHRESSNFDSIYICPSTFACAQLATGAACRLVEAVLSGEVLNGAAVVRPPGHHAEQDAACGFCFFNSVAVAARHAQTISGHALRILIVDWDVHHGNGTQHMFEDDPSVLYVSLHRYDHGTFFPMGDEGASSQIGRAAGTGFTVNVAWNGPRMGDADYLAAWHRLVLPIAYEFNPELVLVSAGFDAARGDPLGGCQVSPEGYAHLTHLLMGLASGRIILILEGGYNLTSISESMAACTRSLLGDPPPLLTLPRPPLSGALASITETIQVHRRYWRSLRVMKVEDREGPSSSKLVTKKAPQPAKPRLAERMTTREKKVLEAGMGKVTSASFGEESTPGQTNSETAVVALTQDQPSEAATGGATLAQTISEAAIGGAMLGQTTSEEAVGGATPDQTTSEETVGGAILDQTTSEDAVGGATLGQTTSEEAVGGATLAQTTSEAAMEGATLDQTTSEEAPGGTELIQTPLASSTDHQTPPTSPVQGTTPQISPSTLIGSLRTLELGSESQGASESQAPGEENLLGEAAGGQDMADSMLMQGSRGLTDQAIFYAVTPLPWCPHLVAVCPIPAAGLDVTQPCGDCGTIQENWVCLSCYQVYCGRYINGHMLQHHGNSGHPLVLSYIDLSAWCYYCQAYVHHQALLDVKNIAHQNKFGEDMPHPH
Conditions: at 10 µM.
Consider `CN1CCCN=C1/C=C/c1cccs1`, for which the inhibition was determined as 42%.
To `CCCCCCCCCCCCCCCC(=O)N[C@@H](CCC(=O)NCCCC[C@H](NC(=O)[C@H](C)NC(=O)[C@H](C)NC(=O)[C@H](CCC(N)=O)NC(=O)CNC(=O)[C@H](CCC(=O)O)NC(=O)[C@H](CC(C)C)NC(=O)[C@H](Cc1ccc(O)cc1)NC(=O)[C@H](CO)NC(=O)[C@H](CO)NC(=O)[C@@H](NC(=O)[C@H](CC(=O)O)NC(=O)[C@H](CO)NC(=O)[C@@H](NC(=O)[C@H](Cc1ccccc1)NC(=O)[C@@H](NC(=O)CNC(=O)[C@H](CCC(=O)O)NC(=O)[C@H](C)NC(=O)[C@@H](N)Cc1cnc[nH]1)[C@@H](C)O)[C@@H](C)O)C(C)C)C(=O)N[C@@H](CCC(=O)O)C(=O)N[C@@H](Cc1ccccc1)C(=O)N[C@H](C(=O)N[C@@H](C)C(=O)N[C@@H](Cc1c[nH]c2ccccc12)C(=O)N[C@@H](CC(C)C)C(=O)N[C@H](C(=O)N[C@@H](CCCNC(=N)N)C(=O)NCC(=O)N[C@@H](CCCNC(=N)N)C(=O)NCC(=O)O)C(C)C)[C@@H](C)CC)C(=O)O` belongs 15.4%; to `c1ccc(CCNc2nc(-c3ccccc3)cs2)cc1`, 96.5%; to `O=C1c2ccccc2C(=O)C1c1ccc(Br)cc1`, 38.3%.
To `O=C(Nc1ccc([N+](=O)[O-])cc1Cl)c1cc(Cl)ccc1O` belongs 42.3%; to `O=C(CCCCCN1C(=O)c2cccc3cccc(c23)C1=O)NO`, 104%.
To `O=C1NC(=O)/C(=C/c2ccc(-c3ccc(F)cc3O)o2)S1` belongs 94.9%; to `O=C(NC1CC1)c1cc(-c2cccs2)on1`, 70.5%.
In the case of `C[C@H](NCc1ccc(OCc2cccc(F)c2)cc1)C(N)=O`, the inhibition was 84.6%.
Regarding `C[C@@H]1CC(=O)c2c(ccc3c2C(=O)c2cccc(O)c2C3=O)C1`, the inhibition was 105%.
Turning to `O=C(/C=C/c1ccc2c(c1)OCO2)N1CCCCC1`, the inhibition was determined as 89.8%.
To `CCCCOC(=O)c1ccc(O)cc1` belongs 81.3%; to `NCCNc1ccc(NCCN)c2c1C(=O)c1ccncc1C2=O`, 108%; to `CC1(C)CNc2cc(NC(=O)c3cccnc3NCc3ccncc3)ccc21`, 78.2%.
As for `Cc1cc(NCCO)nc(-c2ccc(Br)cc2)n1`, the inhibition turned out to be 64.4%.
To `COc1cc(OC)cc(-c2ccc3c(-c4ccc(F)cc4)n[nH]c3n2)c1` belongs 47.1%; to `COc1ccc(C2C(=O)c3ccccc3C2=O)cc1`, 99.8%; to `N#C/C(=C\c1ccc(O)c(O)c1)C(=O)NCCCc1ccccc1`, 33.8%.
To `O=C(/C=C/c1ccccc1)NCCO` belongs 50.5%; to `c1ccc2sc(SNC3CCCCC3)nc2c1`, 23.2%.
To `COc1ccc(N(C(=O)Oc2c(C)cccc2C)c2ccnc(Nc3ccc(N4CCN(C)CC4)cc3)n2)c(OC)c1` belongs -5.43%.
Turning to `Cc1nc2ccc(-n3ncc(C(=O)c4cc5ccccc5[nH]4)c3N)cc2[nH]1`, the inhibition is 112%.
On to `Cc1[nH]cnc1-c1ccc(Cl)cc1`, for which the inhibition is 94.8%.
For the compound `Cc1cn([C@H]2C=C[C@@H](CO)O2)c(=O)[nH]c1=O`, the inhibition was determined as 19.5%.
For `c1ccc(-c2cnn3cc(-c4ccc(OCCN5CCOCC5)cc4)cnc23)cc1` the value was 106%; for `O=C(Oc1ccccc1)c1ccccc1O`, 67.9%; for `CC(C)COC(=O)c1ccc(N)cc1`, 82.1%.
To `Cc1cc(O)c2c(c1)C(=O)c1cccc(O)c1C2=O` belongs 65.1%; to `O=C1Cc2c([nH]c3ccc(Br)cc23)-c2ncccc2N1`, 92.8%; to `CC(C)Oc1ccc2c(=O)c3cc(C(=O)O)ccc3oc2c1`, 64.7%.
For `CN(C)Cc1c(C(=O)NCCOc2ccc(C(=O)NO)cc2)oc2ccccc12` the value was 102%.
On to `CC(=O)Oc1ccccc1C(=O)Nc1ncc([N+](=O)[O-])s1`, for which the inhibition worked out at 110%.
To `N#Cc1c(O)c2c(-c3ccc(-c4ccccc4O)cc3)csc2[nH]c1=O` belongs 57.7%; to `FC(F)(F)c1cc(NC(=S)Nc2ccc(Br)cc2-c2nnn[nH]2)cc(C(F)(F)F)c1`, 31.7%; to `Cn1ccc2cc(NC(=O)Nc3cccnc3)ccc21`, 50.6%.
As to `CCOc1ccc(S(=O)(=O)O)c2cccnc12`, the inhibition was -1.18%.
For the compound `N#Cc1cc(F)cc(-c2nc(-c3ccc(F)cn3)no2)c1`, the inhibition came to 55.6%.
As to `Cn1cc(/C=C2/C(=O)Nc3cccnc32)c2ccccc21`, the inhibition is 109%.
On to `Nc1cc2c3ccccc3ccc2c2ccccc12`, for which the inhibition was determined as 24.2%.
Take `Cc1cc(C)c(S(=O)(=O)Nc2cccc(C(F)(F)F)c2)c(C)c1`: the inhibition was -5.7%.
Take `COc1ccccc1OCC(O)COC(N)=O` (stereo unspecified): the inhibition came to 8.29%.
On to `CN(Cc1ccccc1)C(=O)[C@H](Cc1ccc2ccccc2c1)NC(=O)[C@@H]1C[C@@H](O)CN1C(=O)c1cn(C)c2ccccc12`, for which the inhibition is 6.39%.
Regarding `CC(C)OC(=O)Nc1cccc(Cl)c1`, the inhibition stood at 73%.
Turning to `COc1cc2nc(C3CC3)nc(N3CCN(c4ccccc4OC)CC3)c2cc1OC`, the inhibition worked out at 56.3%.
With `O=C(OCC(O)CO)c1ccccc1Nc1ccnc2cc(Cl)ccc12` (stereo unspecified), the inhibition is 83.6%.
To `N[C@@H]1CCCN(c2c(/C=C3\SC(=O)NC3=O)cccc2-c2ccccc2)C1` belongs 14.4%.
To `CCC(CC)(CC(=O)Nc1cccc(/C=C/c2nc(C3CCC3)cs2)c1)C(=O)O` belongs 36.2%.
For `O=C(O)Cc1ccc2c(c1)C(=O)c1ccccc1CO2`, the inhibition came out at 64.3%.
To `CN1CCc2c(c3ccccc3n2Cc2ccc(C(=O)NO)cc2)C1` belongs 99.5%; to `CN(C)CC/C=C1\c2ccccc2Sc2ccc(Cl)cc21`, 94.5%; to `C#C[C@]1(OC(C)=O)CC[C@H]2[C@@H]3CCC4=C/C(=N/O)CC[C@@H]4[C@H]3CC[C@@]21CC`, 17.1%.
For the compound `CCCCc1nc2cc(/C=C/C(=O)NO)ccc2n1CCN(CC)CC`, the inhibition was 83.5%.
To `O=C(Nc1ccc(Br)cc1)c1cc(Br)cc(Br)c1O` belongs 30.8%; to `O=C(O)CNC(=O)c1c(O)c2ccccc2n(Cc2ccccc2)c1=O`, 73.4%.
As for `Nc1ccc(/N=N/c2ccccc2)c(N)n1`, the inhibition turned out to be 106%.
For `O=C(Nc1ccc2[nH]ccc2c1)c1ccccc1` the value was 86.3%; for `O=C(Nc1ccc(O)cc1)c1ccccc1O`, 100%; for `OCCOCCN1CCN(C(c2ccccc2)c2ccc(Cl)cc2)CC1` (stereo unspecified), -6.68%.
For `CC(C)(C)c1[nH]cnc1/C=c1\[nH]c(=O)/c(=C/c2ccccc2)[nH]c1=O` the value was 80.7%; for `CC(C)c1ccc2oc3nc(N)c(C(=O)O)cc3c(=O)c2c1`, 108%; for `N=C(NCCC[C@H](N)C(=O)O)N[N+](=O)[O-]`, 0.71%.
For `Cc1ccc(NC(=O)c2ccc(CN3CCN(C)CC3)cc2)cc1Nc1nc(-c2cccnc2)cs1` the value was 22.6%.
Regarding `CC(C)[C@H](C(=O)Nc1ccc(C(=O)NO)cc1)c1ccccc1`, the inhibition was determined as 101%.
To `NS(=O)(=O)c1nn2cc(-c3ccccc3)nc2s1` belongs 81.9%; to `Cc1cc(C)c(N)c(C#Cc2cccc(F)c2)n1`, 74.2%.
Take `O=c1c2ccccc2[se]n1-c1ccccc1`: the inhibition was determined as 3.77%.
Regarding `c1cc(Nc2cc(C3CC3)n[nH]2)nc(Nc2ccc3[nH]cnc3c2)n1`, the inhibition was determined as 66.6%.
For `Nc1ncnc(Nc2ccc(Cl)cc2)n1` the value was 59.8%; for `Cc1c(-c2ccc(O)cc2)n(Cc2ccc(OCCN3CCCCCC3)cc2)c2ccc(O)cc12`, 97.7%; for `c1ccc2c(c1)Nc1ccccc1S2`, 71.8%.
For `COc1ccc(-c2nc(N3CCOCC3)c3sc(CN(C)c4ncc(C(=O)NO)cn4)cc3n2)cn1` the value was 104%.
For the compound `CC(C)(C)C1CCc2c(sc(NC(=O)c3ccco3)c2C(=O)O)C1` (stereo unspecified), the inhibition was 73.7%.
To `CCCn1c(=O)c2[nH]c(-c3cnn(Cc4cccc(C(F)(F)F)c4)c3)nc2n(CC)c1=O` belongs 18.7%; to `O=C(N/N=C/c1ccccc1O)c1ccccc1O`, 107%; to `Cc1cc(Cl)ccc1OCCCC(=O)NO`, 96.5%.
For `O=C1OC2(c3cc(I)c(O)c(I)c3Oc3c2cc(I)c(O)c3I)c2c(Cl)c(Cl)c(Cl)c(Cl)c21`, the inhibition turned out to be 68.7%.
